Data as given in article PMC8123555, “Precision targeting of the plasminogen activator inhibitor‐1 mechanism increases efficacy of fibrinolytic therapy in empyema” (Physiological Reports, 2021).
Where two headings read alike, the source gives them in different places. Where no end group is shown, it is not given here.

Tests used:
[1] = test system: PAI‐1; details: alanine mutations of positively charged residues in the 37-loop; ref Benedict et al., 1995; Florova et al., 2018; Keyt et al., 1994; cited from earlier work
Excerpt: Plasminogen Activator Inhibitor‐1 (PAI‐1) is a mechanism‐based inhibitor of tissue type (tPA) and urokinase (uPA) plasminogen activators (PAs) (Carrell et al., 1991; Chaillan‐Huntington et al., 1997; Mourik et al., 1984) used for fibrinolytic therapy. Levels of PAI‐1 increase by up to three orders of magnitude in empyema (pleural sepsis), and organizing pleural injury (Aleman et al., 2003; Chung et al., 2005; Philip‐Joet et al., 1995), limiting endogenous and exogenous plasminogen activating activity that could help prevent or treat uncontrolled fibrin deposition induced by inflammation. Previ ...

[2] = in vivo; details: rabbit
Protocol: (§1) All animal procedures were approved by the Institutional Animal Care and Use Committee at The University of Texas Health Science Center at Tyler (IACUC protocols 499,616,617). Studies used female, pathogen‐free New Zealand white rabbits (3.0–3.6 kg; average age 18 weeks) from Charles River Laboratories (Wilmington, MA). These studies required a total of 107 rabbits, 43 for the model of TCN‐induced pleural injury and 64 for the model of empyema. […] Briefly, a 3 ml mixture of TCN in ascorbic acid (20 mg/ml TCN (T3258, Sigma‐Aldrich), 2.5 mg/ml ascorbic acid (A7506, Sigma‐Aldrich) and lidocaine (1 mg/ml, UTHCT Compounding Pharmacy), was delivered by intrapleural injection. A model of acute empyema in rabbits was induced as described previously (Komissarov et al., 2016). Briefly, 1–5 × 10^8 cfu of S. pneumoniae (D39 strain, National Collection of Type Cultures, Salisbury UK) in 3 ml of 0.5% brain‐heart infusion agar (BD 238400, BD Diagnostic Systems) was delivered by intrapleural injection. Clavomox (10 mg/kg, subcutaneous, daily for 1–3 days as clinically indicated by Attending Veterinarian) (10000485, Zoetis) was started at 28–30 h post‐infection. Accumulation of pleural fluid and fibrin deposition was monitored using ultrasonography; detailed in the ultrasonography subsection. After 48 or 72 h for TCN‐induced pleural injury and empyema, respectively, intrapleural therapeutics were administered depending on treatment group via an 18‐gauge catheter, which was flushed with 0.5 ml PBS. In all experiments, samples of pleural fluids (0.5 ml) from each rabbit were collected prior to and at 10, 20, and 40 min after PAI‐1‐TFT and processed for later analysis (Florova et al., 2015; Karandashova et al., 2013; Komissarov et al., 2013, 2016). Anesthesia, postoperative pain medication, and animal care were provided as reported previously (Florova et al., 2015; Karandashova et al., 2013; Komissarov et al., 2013, 2016). with details provided in the supplement. Animals were monitored carefully for signs of distress, pain, and worsening clinical status. Euthanasia was accomplished using intravenous injection of 1 ml of commercial euthanasia solution (sodium pentobarbital 390 mg/ml and phenytoin 50 mg/ml) followed by exsanguination.
The residual DSP in pleural fluid samples was determined using LC MS/MS. Briefly, collected samples were extracted using acetonitrile, cleaned with Microcon centrifugal filters (MRCPRT010, MilliporeSigma) and injected via autosampler onto a Pinnacle DB C8 Column (9413332, Restek) reverse‐phase column operated at a flow rate of 200 μl/min. A gradient elution method using solvent A (99% H2O, 1% acetonitrile, 0.05% TFA) for 5 min, a gradient to 100% solvent B (1% H2O, 99% acetonitrile, 0.05% TFA) over 25 min, and 100% solvent B for 2 min was employed. […]

[3] = rabbit, in vivo
Protocol: (§2) FIGURE 7 Low dose PAI‐1‐TFT induces no intrapleural bleeding. Pleural fluids from rabbits with TCN‐induced (a) or S. pneumoniae‐induced (b) pleural injury were collected at necropsy and red blood cells (RBC) were counted using a Beckman Coulter. (a) Animals with TCN‐induced pleural injury were treated (from left to right) with vehicle control (n = 6); 62.5 µg/kg of scuPA alone (n = 6); and with 2.0 mg/kg DSP (n = 6); 72.5 µg/kg of sctPA alone (n = 5), and with 2.0 mg/kg DSP (n = 6). (b) Animals with infectious pleural injury were treated (from left to right) with vehicle control (n = 6); 0.25 mg/kg of sctPA alone (n = 5), and with 8.0 mg/kg DSP (n = 6), 0.5 mg/kg of sctPA alone (n = 6), and with 8.0 mg/kg DSP (n = 6), 0.5 mg/kg of scuPA alone (n = 9), and with 8.0 mg/kg DSP (n = 3). […] Data are presented as box and whisker plots (all points shown)

[4] = Intrapleural bleeding, pleural fluid RBC counts, empyema; type: in vivo, rabbit
Protocol: as §2

[5] = rabbit, in vivo; remark: listed apart in the source
Protocol: as §1, with “Anesthesia, postoperative pain medication, and animal care were provided as reported previously (Florova et al., 2015; Karandashova et al., 2013; Komissarov et al., 2013, 2016). with details provided in the supplement.” left out, “Euthanasia was accomplished using intravenous injection of 1 ml of commercial euthanasia solution (sodium pentobarbital 390 mg/ml and phenytoin 50 mg/ml) followed by exsanguination.” left out
The residual DSP in pleural fluid samples was determined using LC MS/MS. […]

Substance | Rate of reaction with PAI-1 relative to the WT enzymes [1] | level at 40 min ([2]; female, New Zealand white, 8 mg/kg) [µg/mL] | Apparent first order rate constant of DSP clearance (kclr), slower phase [2] [min⁻¹] | DSP in pleural fluid at 24 h [2] | Presence of DSP in pleural fluid after treatment [2] | Bleeding accompanying PAI-1-TFT [3] | Bleeding accompanying PAI-1-TFT ([4]; DSP with plasminogen activator, empyema) | Pleural fluid RBC counts ([4]; any dose of DSP alone or in combination with plasminogen activator, pleural fluid at necropsy, Beckman Coulter) | Apparent first order rate constant of DSP clearance (kclr), slower phase [5] [min⁻¹] | DSP in pleural fluid at 24 h [5] | Presence of DSP in pleural fluid after treatment [5]
tenecteplase | almost two orders of magnitude slower |  |  |  |  |  |  |  |  |  | 
EEIIMD [DSP, EEIIMD] |  | > 300 | 0.03 to 0.07 | No DSP was detected | over 40 min | no apparent local or systemic bleeding | no apparent local or systemic bleeding | no statistical difference | 0.03 to 0.07 | No DSP was detected | over 40 min
